# What was measured:
# [1] = test system: p65/RelA activation and phosphorylation of NEMO; test: Western blot for canonical NF-κB activation; type: cell-based; conditions: single agent, Western blot
# From the text: The cells were lysed to prepare protein extracts.
# [2] = test system: parental and chemo-resistant human and murine TNBC cells and parental renal cancer cells; test: Cytokine ELISA of culture media, chemotherapy-induced secretion; type: cell-based; conditions: single agent
# [3] = test system: RENCA renal cancer tumors; test: RENCA cell-derived syngeneic kidney cancer tumor model; conditions: throughout the experiment
# Experimental: The subcutaneous tumor bearing mice were treated with indicated agents. […] The end-points for assessing anti-tumor activity involved qualitative determination via tumor growth inhibition (% T/C) where T is the median tumor volume of the treated mice and C is the median tumor volume of the Control mice on any given day of measurement.
# MDR1 = test: Levels of drug efflux pump MDR1; type: cell-based, human; conditions: MDA-MB-468 cells
# From the text: Of note is that SNI-1 in combination with Adriamycin provoked a greater inhibition of tumor growth when compared with the tumor growth inhibition noted in animals treated with either agent alone. […] Since TNBCs and many other cancers are often known to express drug efflux pumps that contribute to lower efficacy of drugs in clinic and development of drug-resistant tumors, it is likely that the presence/expression of these drug efflux pumps function in part to interfere with a robust anti-tumor response to a combination of SNI-1 and Adriamycin.
# 4T1 TNBC tumors = test: 4T1 TNBC syngeneic tumor efficacy study in Balb/c mice; type: in vivo, mouse
# Experimental: Establishment of TNBC cell-derived xenografts in Syngeneic mice: Generation of 4T1 TNBC cell-derived sub-cutaneous xenografts in Balb/c mice were performed (Cheriyan et al. (2016) Oncotarget 7, 73370-73388; and Cheriyan et al. (2017) Oncotarget 8, 104928-104945). BALB/cAnNCr, 6-8-weeks old, female mice were purchased from Charles River Laboratories (Horsham, Pa.). Following suitable acclimation of animals, 1×10^6 4T1 TNBC cells were re-suspended in 200 μl of sterile saline, and implanted in the flanks using a 27-gauge needle. Tumors were allowed to grow to 500-1000 mg (˜10 days), and the aseptically harvested, minced into 3-4 mm^3 (30 mg) fragments and transplanted SC into naïve recipient mice using a standard 12 gauge trocar to serially maintain the tumor in vivo. For efficacy studies, tumors serially maintained in vivo were aseptically harvested and minced into 3-4 mm^3 (30 mg) fragments, then bilaterally transplanted subcutaneously along the flanks using a standard 12 gauge trocar. […] For the efficacy studies, SNI-1 was formulated in 8% DMSO (v/v) and 8% Cremophor (v/v) in cell grade water, pH4 as diluent.
# Clinical grade ADR stock (2 mg/mL) was diluted to the appropriate concentration with cell grade water; pH4 and clinical grade CIS (1 mg/ml) diluted with USP 0.9% saline; pH6). Mice were monitored daily for changes in condition and body weight. Tumors were measured three times weekly by caliper and tumor volume (mg) was calculated using the following formula: (A×B2)/2 where A and B are the tumor length and width (in mm), respectively. […] Efficacy was also assessed quantitatively using tumor growth delay (T−C) defined as the difference between the median time (in days) required for the treatment group tumors (T) to reach 1000 mg and the median time (days) for the control group tumors to reach the same volume. Post last treatment, tumor tissue and samples from various organs (spleen, liver, kidney, heart, bone, and lungs) were collected. Additionally, the whole blood samples were obtained from a representative tumor-bearing mouse from each group via terminal cardiac puncture. Immuno-histochemical analyses of the tumor and tissue samples were performed for expression of activated RelA (serine 536 phosphorylated p65), total RelA, cleaved caspase-3, and CARP-1 proteins. The levels of pro-inflammatory cytokines in the sera were analyzed by sandwich ELISA assays following methods detailed herein (Cheriyan et al. (2016) Oncotarget 7, 73370-73388; and Cheriyan et al. (2017) Oncotarget 8, 104928-104945).
compound,measurement,setting,value
N.N.[Cl][Pt][Cl] [Cisplatin],p65/RelA activation and phosphorylation of NEMO,[1],robust increase
same,"levels of TNFα, IL-8, and IL-1β in the media",[2],robust increase
same,weight loss in animals,[3],0.8-3.2%
same,levels of drug efflux pump MDR1,MDR1,robust increase
same,serum levels of TNFα and IL-1β,4T1 TNBC tumors; ELISA of sera,robustly stimulated
same,phosphorylated p65/RelA in tumors (immuno-histochemistry),"4T1 TNBC tumors; mouse, in vivo",presence of phosphorylated p/65RelA
same,cleaved caspase-3 in tumors (immuno-histochemistry),4T1 TNBC tumors; versus untreated control animal,strong presence of cleaved caspase-3

# Source: patent US20210106567A1, “COMPOSITIONS AND METHODS FOR INHIBITING CARP-1 BINDING TO NEMO” (United States Government As Represented By The Department …, priority 2019, published 2021)
